# Laboratory results published in patent US20040006120A1, “Use of histamine h3 receptor inverse agonists for the control of appetite and treatment of obesity” (priority 2003, published 2004).
# Marks after values point to notes of the source that are not given here.
# Columns and labels:
# [1] = tested on: food consumption by adult Sprague-Dawley rats; assay: Food intake by adult Sprague-Dawley rats; format: in vivo, rat; settings: for Decrease in Food Intake (%): two hours following the onset of the dark cycle
# Protocol: The compounds summarized in Table 3 were examined for their ability to suppress food consumption by adult Sprague-Dawley rats. Male Sprague Dawley rats were purchased from Harlan Laboratories of Indianapolis, Ind. Rats were housed one per cage and maintained on a 12 hour light/dark schedule (lights-out at 12:30 p.m.) with ad libitum access to powdered Teklad Mouse/Rat Diet 7012 (available from Harlan Laboratories of Indianapolis, Ind.) and water. Rats were acclimated to laboratory conditions and food for 1 to 2 weeks prior to initiating food intake studies. On the day of experiments, test compounds were solubilized or suspended in vehicle/carrier and administered to rats (i.p. or p.o.) 30 to 60 minutes prior to the onset of the dark cycle. Food intake was determined at 1, 2, 4, and 24 hours following the onset of the dark cycle. Alternatively, rats were fasted (water provided) for 24 hours prior to evaluating the effects of compounds on food intake. For these studies, compounds or vehicle/carrier were administered and rats were placed in standard small animal metabolism chambers with ad libitum access to powdered Teklad Mouse/Rat Diet 7012 and water. Food intake was determined at 2 and 4 hours following the onset of feeding.
# Data is cumulative food intake in grams, mean ± sem. In the table, * indicates a significant decrease in food intake compared to the vehicle-treated rats (t-test, p<0.05).
# (§1) The percent reduction in food intake by rats two hours after intraperitoneal administration of each compound is shown in Table 5. […] In Table 5, * indicates a significant decrease in food intake compared to the vehicle-treated rats (t-test, p<0.05). The ex vivo binding values in Table 5 represent the drug dose required to obtain ½-maximal H3 receptor occupancy in the brain following intraperitoneal administration. The dose values shown in Table 5 represent the dosage of drug utilized during the food intake studies. In all cases, the tested dose exceeded the amount needed to obtain ½-maximal H3 receptor occupancy in the brain.
# [2] = molecular target: T1, H3 receptor occupancy in the brain (Rattus norvegicus, UniProt Q9QYN8); assay: Ex vivo binding: H3 receptor occupancy in the brain after intraperitoneal administration; settings: following intraperitoneal administration
# T1 construct: H3 receptor occupancy in the brain following intraperitoneal administration; from tissue
# T1 sequence (Q9QYN8 whole entry): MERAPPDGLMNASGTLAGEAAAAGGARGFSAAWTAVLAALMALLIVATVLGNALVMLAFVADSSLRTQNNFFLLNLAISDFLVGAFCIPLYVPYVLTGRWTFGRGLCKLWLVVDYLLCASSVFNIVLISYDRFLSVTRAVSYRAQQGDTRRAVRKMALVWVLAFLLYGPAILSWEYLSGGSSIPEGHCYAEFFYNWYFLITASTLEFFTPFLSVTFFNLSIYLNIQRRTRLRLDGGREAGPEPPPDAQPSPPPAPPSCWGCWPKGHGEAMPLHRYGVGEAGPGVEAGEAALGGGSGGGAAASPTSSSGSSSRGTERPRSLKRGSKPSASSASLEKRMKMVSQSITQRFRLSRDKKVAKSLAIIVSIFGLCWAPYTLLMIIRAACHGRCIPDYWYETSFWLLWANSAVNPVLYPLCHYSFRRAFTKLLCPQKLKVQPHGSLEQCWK
# Excerpt: as §1
# [3] = molecular target: T2, Histamine H3 receptor (Rattus norvegicus, UniProt Q9QYN8); assay: Histamine H3 receptor binding in rat cerebral cortical membranes with [3H]-Nα-methylhistamine, with and without GTPγS; settings: in words
# T2 construct: The cerebral cortical tissues were harvested and frozen on dry ice; from tissue; host or cells: cerebral cortex of male Sprague-Dawley rats (membrane preparation)
# T2 sequence (Q9QYN8 whole entry): as above
# Protocol: A histamine H3 receptor binding analysis to determine the affinity of various imidazole derivatives for G-protein uncoupled receptors was performed as follows. Male Sprague-Dawley rats were purchased from Harlan Laboratories of Indianapolis, Ind. and housed two per cage on a 12 hour light/dark schedule with ad libitum access to Teklad Mouse/Rat Diet 7012 (available from Harlan Laboratories of Indianapolis, Ind.) and water in accordance with the Animal Welfare Act of 1994 and amendments. Animals were acclimated to laboratory conditions for a minimum of one week prior to tissue harvesting.
# Animals were anesthetized by NO2 inhalation and euthanized by rapid decapitation. The cerebral cortical tissues were harvested and frozen on dry ice. Rat corticies were mechanically homogenized using a Tissue Tearer in 25 mM Tris buffer (pH 7.5 at 4° C.) containing: EDTA (10 mM), phenylmethylsulfonyl fluoride (0.1 mM), chymostatin and leupeptin (each 0.2 mg/50 mL). The homogenate was centrifuged in a Sorvall centrifuge at 40,000×g for 30 minutes. The pellet was re-suspended in 25 ml water and lysed on ice for 30 minutes. The homogenate was then re-centrifuged and the membrane lysis was repeated. […] Protein concentrations were determined using the Coomassie Plus Protein Assay (available from Pierce of Rockford, Ill.). […]
compound,measurement,setting,value
"O=C(N[C@@H]1C[C@H]1c1c[nH]cn1)OCCC1CCCCC1 [Compound 1, 4-((1R,2R)-trans-2-(O(2-cyclohexylethyl)carboxamido)cyclopropyl)imidazole]",Decrease in Food Intake (%),"[1]; Dose 10, intraperitoneal",32.6 ± 4.3* %
same,Ex Vivo Binding: drug dose required to obtain ½-maximal H3 receptor occupancy in the brain,[2],31 ± 1.3 mg/kg
"C(=C/CCC1CCCCC1)/CCc1c[nH]cn1 [Compound 2, (3Z)-4-(6-cyclohexylhex-3-en-1-yl)imidazole]",Decrease in Food Intake (%),"[1]; Dose 3, intraperitoneal",5.5 ± 0.8%
same,Ex Vivo Binding: drug dose required to obtain ½-maximal H3 receptor occupancy in the brain,[2],0.92 ± 0.01 mg/kg
same,binding to GTPγS-treated cortical membrane preparation compared with non-treated preparation,[3],relatively little difference
"O=C(N[C@@H]1C[C@H]1c1c[nH]cn1)OCC1CCCCC1 [Compound 3, 4-((1R,2R)-trans-2-(O-(2-cyclohexylmethyl)carboxamido)cyclopropyl)imidazole]",Decrease in Food Intake (%),"[1]; Dose 10, intraperitoneal",36.4 ± 3.3* %
same,duration of significant reduction of food consumption,"[1]; single administration, 10 mg/kg i.p.",up to 24 hours
same,Ex Vivo Binding: drug dose required to obtain ½-maximal H3 receptor occupancy in the brain,[2],2.6 ± 1.3 mg/kg
"N[C@H](/C=C\CCc1c[nH]cn1)CC1CCCCC1 [Compound 4, 4-(((5S)(3Z)-5-amino-6-cyclohexyl)hex-3-en-1-yl)imidazole]",Decrease in Food Intake (%),"[1]; Dose 20, intraperitoneal",53.9 ± 11.1* %
same,Ex Vivo Binding: drug dose required to obtain ½-maximal H3 receptor occupancy in the brain,[2],˜15 mg/kg
"O=C(CCCCC1CCCCC1)N1CCC(c2c[nH]cn2)CC1 [Compound 5, 4-(N-(5-cyclohexylpentan-1-one-1-yl)piperidin-4-yl)imidazole]",Decrease in Food Intake (%),"[1]; Dose 10, intraperitoneal",67.6 ± 9.6* %
same,Ex Vivo Binding: drug dose required to obtain ½-maximal H3 receptor occupancy in the brain,[2],8.0 ± 1.3 mg/kg
"CC(C)(C)CCC#C[C@@H]1C[C@H]1c1c[nH]cn1 [Compound 6, (1R,2R)-trans-4-(2-(5,5-dimethylhex-1-ynyl)cyclopropyl)imidazole]",Decrease in Food Intake (%),"[1]; Dose 1, intraperitoneal",−4.6 ± 0.8%
same,Ex Vivo Binding: drug dose required to obtain ½-maximal H3 receptor occupancy in the brain,[2],0.08 ± 0.03 mg/kg
"O=C(N[C@@H]1C[C@H]1c1c[nH]cn1)OCc1c(Cl)cccc1Cl [Compound 7, 4-((1R,2R)-trans-2-(O-(2,6-dichlorophenylmethyl)carboxamido)cyclopropyl)imidazole]",Decrease in Food Intake (%),"[1]; Dose 10, intraperitoneal",0.8 ± 0.0%
same,Ex Vivo Binding: drug dose required to obtain ½-maximal H3 receptor occupancy in the brain,[2],2.9 ± 1.3 mg/kg
"Fc1ccc(C(OCCCc2c[nH]cn2)c2ccc(F)cc2)cc1 [Compound 8, 3-(1H-imidazol-4-yl)propyl-di(p-fluorophenyl)-methylether]",Decrease in Food Intake (%),"[1]; Dose 10, intraperitoneal",56.6 ± 8.3* %
same,Ex Vivo Binding: drug dose required to obtain ½-maximal H3 receptor occupancy in the brain,[2],5.6 ± 0.12 mg/kg
"CC(C)(C)CCOC(=O)N[C@@H]1C[C@H]1c1c[nH]cn1 [Compound 9, 4-((1R,2R)-trans-2-(O-(3,3-dimethyl-but-1-yl)carboxamido)cyclopropyl)imidazole]",Decrease in Food Intake (%),"[1]; Dose 10, intraperitoneal",−25.1 ± 3.8%
same,Ex Vivo Binding: drug dose required to obtain ½-maximal H3 receptor occupancy in the brain,[2],3.7 ± 0.4 mg/kg
